Columns and labels:
Hepatitis C virus [1] = experiment: Antiviral activity against HCV subtype 1b by replicon assay; assay type: functional, organism-based, Hepacivirus hominis; details: genotype 1b
Hepatitis C virus [2] = experiment: Antiviral activity against Hepatitis C virus genotype 1b infected in human Huh7ET cells expressing LucUbiNeo fusion protein measured after 2 days by luciferase Bright-Glo assay; assay type: functional, organism-based, Hepacivirus hominis; details: Huh-7, 48 h
[3] = Cytotoxicity against human Huh7ET cells expressing LucUbiNeo fusion protein measured after 4 hrs at 37 degC by MTT assay; assay type: cell-based, Huh-7
[4] = Selectivity index, ratio of CC50 for human Huh7ET cells expressing LucUbiNeo fusion protein to EC50 for Hepatitis C virus genotype 1b infected in human […] cells; assay type: toxicity, cell-based; details: read-out: Ratio CC50/EC50

| Compound | EC50 (Hepatitis C virus [2]) | EC50 (Hepatitis C virus [1]) | CC50 at 4 h [3] | selectivity ratio [4] |
| --- | --- | --- | --- | --- |
| CC(C)OC(=O)[C@H](C)NP(=O)(OC[C@H]1O[C@@H](n2ccc(=O)[nH]c2=O)[C@](C)(F)[C@@H]1O)Oc1ccccc1 (some centres not stated) |  | 0.048 µM |  |  |
| O=C1Nc2nc(Nc3ccccc3)nc(On3nnc4ccccc43)c2CC1c1ccc(F)cc1 (configuration not stated) | 1.28 µM |  | 12.2 µM |  |
| O=C1Nc2nc(NCc3ccccc3)[nH]c(=O)c2CC1c1c(Cl)cccc1Cl (configuration not stated) | 9.6 µM |  | 69 µM |  |
| Nc1nc(Nc2ccccc2)nc2[nH]c(=O)c(-c3c(F)cccc3F)cc12 | 17.5 µM |  | 2.4 µM |  |
| O=C1Nc2nc(Nc3ccccc3)nc(On3nnc4ccccc43)c2CC1c1ccc(Cl)cc1Cl (configuration not stated) | 1.35 µM |  | 5.5 µM |  |
| CSc1nc2c(c(=O)[nH]1)CC(Cc1ccccc1)C(=O)N2 (configuration not stated) | 11.2 µM |  | 38.3 µM |  |
| COCCOc1nc(N)nc2c1CC(c1c(Cl)cccc1Cl)C(=O)N2 (configuration not stated) | 22 µM |  | 65 µM |  |
| O=c1[nH]c2nc(Nc3ccccc3)[nH]c(=O)c2cc1-c1ccc(F)cc1 | 0.034 µM |  | 13.5 µM | 397 |
| O=C1Nc2nc(Nc3ccccc3)[nH]c(=O)c2CC1c1c(F)cccc1F (configuration not stated) | 0.027 µM |  | 5.3 µM | 196 |
| COc1ccc(Nc2nc3[nH]c(=O)c(-c4ccc(F)cc4)cc3c(=O)[nH]2)cc1 | 9.4 µM |  | 46 µM |  |
| Cn1c(=O)c(-c2c(Cl)cccc2Cl)cc2c(N)nc(N)nc21 | 16.7 µM |  | 120 µM |  |
| CCCCCNc1nc(N)nc2c1cc(-c1ccc(F)cc1)c(=O)n2C | 20.9 µM |  | 79.8 µM |  |
| CCCOCCNc1nc(Oc2ccccc2)nc2[nH]c(=O)c(-c3ccc(F)cc3)cc12 | 3.3 µM |  | 79.8 µM |  |
| CCCOCCNc1nc(N)nc2c1cc(-c1ccc(F)cc1)c(=O)n2C | 4.7 µM |  | 54.3 µM |  |
| CCCOCCOc1nc(N)nc2c1cc(-c1c(Cl)cccc1Cl)c(=O)n2C | 10.4 µM |  | 50.1 µM |  |
| Nc1nc(Nc2ccccc2)nc2[nH]c(=O)c(-c3ccccc3)cc12 | 0.49 µM |  | 13.8 µM |  |
| CCCCCNc1nc(N)nc2[nH]c(=O)c(-c3c(Cl)cccc3Cl)cc12 | 3.2 µM |  | 11 µM |  |
| CCCOCCNc1nc(Nc2ccccc2)nc2c1CC(c1c(Cl)cccc1Cl)C(=O)N2 (configuration not stated) | 12.4 µM |  | 50.5 µM |  |
| CCCOCCNc1nc(N)nc2[nH]c(=O)c(-c3ccc(F)cc3)cc12 | 2.1 µM |  | 130 µM |  |
| O=C1Nc2nc(Oc3ccccc3)nc(On3nnc4ccccc43)c2CC1c1ccc(F)cc1 (configuration not stated) | 18.6 µM |  | 62.7 µM |  |
| Cn1c(=O)c(-c2ccc(F)cc2)cc2c(N3CCCC3)nc(N)nc21 | 10.5 µM |  | 111 µM |  |

Second part, led by results:

| EC50 (Hepatitis C virus [2]) | Compound | EC50 (Hepatitis C virus [1]) | CC50 at 4 h [3] | selectivity ratio [4] |
| --- | --- | --- | --- | --- |
| 0.23 µM | Cn1c(=O)c(-c2c(Cl)cccc2Cl)cc2cnc(Nc3ccccc3)nc21 |  | 0.9 µM |  |
| 0.9 µM | Cn1c(=O)c(-c2ccccc2)cc2c(N)nc(Nc3ccccc3)nc21 |  | 23.5 µM |  |
| 0.3 µM | Cn1c(=O)c(-c2c(Br)cccc2Br)cc2c(N)nc(Nc3ccccc3)nc21 |  | 0.8 µM |  |
| 2.8 µM | Cn1c(=O)c(-c2c(F)cccc2C(F)(F)F)cc2c(N)nc(Nc3ccccc3)nc21 |  | 6.3 µM |  |
| 11.9 µM | CCCCn1c(=O)c(-c2c(Cl)cccc2Cl)cc2c(N)nc(Nc3ccccc3)nc21 |  |  |  |
| 0.16 µM | Cn1c(=O)c(-c2c(F)cccc2F)cc2c(N)nc(Nc3ccccc3)nc21 |  | 10.4 µM |  |
| 5.1 µM | CCCOCCNc1nc(Nc2ccccc2)nc2c1cc(-c1c(Cl)cccc1Cl)c(=O)n2C |  | 84.7 µM |  |
| 1.4 µM | CCCn1c(=O)c(-c2c(Cl)cccc2Cl)cc2c(N)nc(Nc3ccccc3)nc21 |  | 181 µM |  |
| 6.3 µM | CCn1c(=O)c(-c2c(Cl)cccc2Cl)cc2c(N)nc(Nc3ccccc3)nc21 |  |  |  |
| 0.22 µM | CC(C)Cn1c(=O)c(-c2c(Cl)cccc2Cl)cc2c(N)nc(Nc3ccccc3)nc21 |  | 185 µM |  |
| 0.99 µM | COCCn1c(=O)c(-c2c(Cl)cccc2Cl)cc2c(N)nc(Nc3ccccc3)nc21 |  | 241 µM |  |
| 7.7 µM | Nc1nc(Nc2ccccc2)nc2[nH]c(=O)c(-c3c(Br)cccc3Br)cc12 |  | 166 µM |  |
| 2.3 µM | Nc1nc(Nc2ccccc2)nc2c1cc(-c1c(Cl)cccc1Cl)c(=O)n2CCO |  | 29.3 µM |  |

Reference: ChEMBL document CHEMBL3792304 (Eur J Med Chem, 2016)
